Laboratory results from article PMC10962542, “Inhibition of Aurora‐A/N‐Myc Protein–Protein Interaction Using Peptidomimetics: Understanding the Role of Peptide Cyclization” (Chembiochem, 2023).
*1 amine or outer side, *2 acyl side, *3 side chain or, on linkers, in order; H or OH if unused. Where a SMILES comes first, the peptide text is derived from it. Bridges are numbered along the chain shown (N, C = ends). Maleimide(3,4-diyl) = O=C1NC(=O)C([*:2])=C1[*:1]

Assays:
[1] = molecular target: T1, N‐Myc/Aurora‐A interaction (Aurora‐A122‐403‐C290A/C393A) (Homo sapiens, UniProt O14965, C290A/C393A); test: competition fluorescence anisotropy (FA) assay against fluorescein labelled N‐Myc61‐89; assay type: binding; conditions: SD; note: equilibrated 2 h at room temperature
T1 construct: Aurora‐A 122‐403‐C290A/C393A protein was produced as described previously; made in house
T1 sequence (O14965 122-403 C290A/C393A): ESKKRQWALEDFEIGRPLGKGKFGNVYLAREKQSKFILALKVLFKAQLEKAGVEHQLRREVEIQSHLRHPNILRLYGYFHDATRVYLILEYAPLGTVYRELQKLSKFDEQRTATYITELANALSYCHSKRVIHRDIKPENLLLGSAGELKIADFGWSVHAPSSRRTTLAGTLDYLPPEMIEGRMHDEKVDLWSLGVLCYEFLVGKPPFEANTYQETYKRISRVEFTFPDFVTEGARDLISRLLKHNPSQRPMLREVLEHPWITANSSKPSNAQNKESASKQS
Procedure: Fluorescence anisotropy (FA) assays: All assays were performed using 384‐well plates (Greiner Bio‐one, UK). […] All samples were prepared in 25 mM Tris, 150 mM NaCl, 5 mM MgCl2, pH 7.5, and tested in triplicate using an EnVisionTM 2103 MultiLabel plate reader (Perkin Elmer; Waltham, MA, USA). The parameters were set as follows: Excitation wavelength=480 nm (30 nm bandwidth) and emission wavelength=535 nm (30 nm bandwidth). Measured data were processed and analysed as previously described.[31] Specifically, the perpendicular intensity (P) and parallel intensity (S) were subtracted by the control values and used for calculations of intensity and anisotropy using the following Equations 1, 2, 3, 4, and 5: (1) I=2PG+S (2) r=S-PG (3) Lb=r-rmin/λrmax-r+r-rmin (4) [drawing 1] (5) y=rmax+rmin-rmax/1+(x/x0)^p
For competition FA assays, the average anisotropy and the average standard deviation of the values derived from equation (2) were calculated and fit to a sigmoidal logistic model (equation (5)) using Origin 2021. […] Results are reported as IC50±SD, with data points representing the mean of three replicates and error bars indicating the corresponding SD. Where applicable, ΔΔG was determined as follows: ΔΔG=−RT ln (ΔIC50).

[2] = circular dichroism (CD) spectroscopy; assay type: physicochemical; conditions: 150 mM NaCl, 5 mM MgCl2, pH 7.5, 5 °C, n=2, free‐thiol (red) samples with 5 mol equivalents TCEP
Procedure: Circular dichroism (CD): All samples were prepared in Tris buffer (25 mM Tris, 150 mM NaCl, 5 mM MgCl2, pH 7.5) with the exception of free sulfhydryl peptides, to which Tris(2‐carboxyethyl)phosphine (TCEP; 5 mol eq. relative to the peptide) was added. CD spectra were recorded using an APP Chirascan CD spectropolarimeter and 1 mm pathlength quartz cuvettes. Sample concentrations were typically 30–120 μM, as determined by UV−V absorption based on a tryptophan extinction coefficient of 5600 M^−1 cm^−1 and, for mal‐constrained variants, a maleimide coefficient of 1700 M^−1 cm^−1.[16, 32] […] Spectra were recorded in duplicate at 5 °C, over wavelengths ranging from 290 to 180 nm, with data collected every 1 nm (1 nm s^−1). A background spectrum for CD buffer alone was also recorded and background ellipticity values were subtracted from raw sample ellipticity values (θ) when calculating mean residue ellipticities (MREs) using Equation 6: (6) MRE=(θλ-θ0)xMw/nxlxc
Where [θ]λ is the observed ellipticity at a given wavelength λ in mdeg, [θ]0 is the ellipticity observed for the buffer, Mw =molar weight of the peptide in g mol^−1, n=number of residues; c=sample concentration (mg mL^−1); l=pathlength of the cuvette in mm. Estimates of peptide % helicity were made using Equation 7, [33] (7) %helicity=(MRE222-MREcoil)x100/-425001-3/n
where MRE222 is the MRE value at 222 nm, MREcoil=640‐45T (with T in °C)=415 deg cm^2 dmol^−1 res^−1 at 5 °C, and n is the number of backbone amide bonds including the N‐terminal acetyl.

Row | Compound | IC50 [1] [µM] | MRE222 (mean residue ellipticity at 222 nm) ([2]; 25 mM Tris, mean ± SD, SD) [deg cm^−1 dmol^−1 res^−1] | % Helicity (estimated) ([2]; from MRE222 by equation 7, 25 mM Tris) [%]
1 | CSCC[C@@H]1NC(=O)[C@@H](NC(=O)[C@@H](NC(=O)[C@@H](NC(=O)[C@H](Cc2c[nH]c3ccccc23)NC(=O)[C@H](CO)NC(=O)[C@@H]2CCCN2C(=O)[C@@H]2CCCN2C(=O)[C@H](CCC(=O)O)NC(=O)[C@H](CO)NC(=O)[C@H](CO)NC(=O)[C@H](Cc2c[nH]cn2)NC(=O)[C@H](CCC(=O)O)NC(=O)[C@H](C)NC(=O)[C@H](Cc2ccccc2)NC(=O)CNC(=O)[C@H](CCCNC(=N)N)NC(=O)[C@H](CO)NC(=O)[C@@H]2CCCN2C(=O)[C@H](CO)NC(=O)[C@H](CC(C)C)NC(C)=O)C(C)C)[C@@H](C)O)CSC2=C(SC[C@@H](C(=O)N[C@@H](CC(N)=O)C(=O)N[C@@H](CCC(=O)O)C(=O)N[C@@H](CC(C)C)C(=O)N[C@@H](Cc3c[nH]c4ccccc34)C(=O)NCC(N)=O)NC(=O)[C@H](CC(C)C)NC(=O)[C@H](CC(C)C)NC1=O)C(=O)NC2=O [N-Myc 61-89 E80C/E84C mal] (Ac-LSPSRGFAEHSSEPPSWVTCMLLCNELWG-NH2; linker 20-24 via Maleimide(3,4-diyl)) | 86 ± 7 | – | –
2 | CSCC[C@H](NC(=O)[C@H](CCC(=O)O)NC(=O)[C@@H](NC(=O)[C@@H](NC(=O)[C@H](Cc1c[nH]c2ccccc12)NC(=O)[C@H](CO)NC(=O)[C@@H]1CCCN1C(=O)[C@@H]1CCCN1C(=O)[C@H](CCC(=O)O)NC(=O)[C@H](CO)NC(=O)[C@H](CO)NC(=O)[C@H](Cc1c[nH]cn1)NC(=O)[C@H](CCC(=O)O)NC(=O)[C@H](C)NC(=O)[C@H](Cc1ccccc1)NC(=O)CNC(=O)[C@H](CCCNC(=N)N)NC(=O)[C@H](CO)NC(=O)[C@@H]1CCCN1C(=O)[C@H](CO)NC(=O)[C@H](CC(C)C)NC(C)=O)C(C)C)[C@@H](C)O)C(=O)N[C@H]1CSC2=C(SC[C@@H](C(=O)N[C@@H](CC(C)C)C(=O)N[C@@H](Cc3c[nH]c4ccccc34)C(=O)NCC(N)=O)NC(=O)[C@H](CC(N)=O)NC(=O)[C@H](CCC(=O)O)NC(=O)[C@H](CC(C)C)NC1=O)C(=O)NC2=O [N-Myc 61-89 L82C/E86C mal] (Ac-LSPSRGFAEHSSEPPSWVTEMCLENCLWG-NH2; linker 22-26 via Maleimide(3,4-diyl)) | 69 ± 18 | – | –
3 | CSCC[C@H](NC(=O)[C@@H]1CSC2=C(SC[C@H](NC(=O)[C@@H]3CCCN3C(=O)[C@@H]3CCCN3C(=O)[C@H](CCC(=O)O)NC(=O)[C@H](CO)NC(=O)[C@H](CO)NC(=O)[C@H](Cc3c[nH]cn3)NC(=O)[C@H](CCC(=O)O)NC(=O)[C@H](C)NC(=O)[C@H](Cc3ccccc3)NC(=O)CNC(=O)[C@H](CCCNC(=N)N)NC(=O)[C@H](CO)NC(=O)[C@@H]3CCCN3C(=O)[C@H](CO)NC(=O)[C@H](CC(C)C)NC(C)=O)C(=O)N[C@@H](Cc3c[nH]c4ccccc34)C(=O)N[C@@H](C(C)C)C(=O)N[C@@H]([C@@H](C)O)C(=O)N1)C(=O)NC2=O)C(=O)N[C@@H](CC(C)C)C(=O)N[C@@H](CC(C)C)C(=O)N[C@@H](CCC(=O)O)C(=O)N[C@@H](CC(N)=O)C(=O)N[C@@H](CCC(=O)O)C(=O)N[C@@H](CC(C)C)C(=O)N[C@@H](Cc1c[nH]c2ccccc12)C(=O)NCC(N)=O [N-Myc 61-89 S76C/E80 mal] (Ac-LSPSRGFAEHSSEPPCWVTCMLLENELWG-NH2; linker 16-20 via Maleimide(3,4-diyl)) | 147 ± 13 | – | –
4 | CSCC[C@@H]1NC(=O)[C@H](CCC(=O)O)NC(=O)[C@@H](NC(=O)[C@@H](NC(=O)[C@H](Cc2c[nH]c3ccccc23)NC(=O)[C@H](CO)NC(=O)[C@@H]2CCCN2C(=O)[C@@H]2CCCN2C(=O)[C@H](CCC(=O)O)NC(=O)[C@H](CO)NC(=O)[C@H](CO)NC(=O)[C@H](Cc2c[nH]cn2)NC(=O)[C@H](CCC(=O)O)NC(=O)[C@H](C)NC(=O)[C@H](Cc2ccccc2)NC(=O)CNC(=O)[C@H](CCCNC(=N)N)NC(=O)[C@H](CO)NC(=O)[C@@H]2CCCN2C(=O)[C@H](CO)NC(=O)[C@H](CC(C)C)NC(C)=O)C(C)C)CSC2=C(SC[C@@H](C(=O)N[C@@H](CCC(=O)O)C(=O)N[C@@H](CC(N)=O)C(=O)N[C@@H](CCC(=O)O)C(=O)N[C@@H](CC(C)C)C(=O)N[C@@H](Cc3c[nH]c4ccccc34)C(=O)NCC(N)=O)NC(=O)[C@H](CC(C)C)NC1=O)C(=O)NC2=O [N-Myc 61-89 T79C/L83C mal] (Ac-LSPSRGFAEHSSEPPSWVCEMLCENELWG-NH2; linker 19-23 via Maleimide(3,4-diyl)) | 99 ± 2 | – | –
5 | CSCC[C@H](NC(=O)[C@H](CCC(=O)O)NC(=O)[C@@H](NC(=O)[C@@H](NC(=O)[C@H](Cc1c[nH]c2ccccc12)NC(=O)[C@H](CO)NC(=O)[C@@H]1CCCN1C(=O)[C@@H]1CCCN1C(=O)[C@H](CCC(=O)O)NC(=O)[C@H](CO)NC(=O)[C@H](CO)NC(=O)[C@H](Cc1c[nH]cn1)NC(=O)[C@H](CCC(=O)O)NC(=O)[C@H](C)NC(=O)[C@H](Cc1ccccc1)NC(=O)CNC(=O)[C@H](CCCNC(=N)N)NC(=O)[C@H](CO)NC(=O)[C@@H]1CCCN1C(=O)[C@H](CO)NC(=O)[C@H](CC(C)C)NC(C)=O)C(C)C)[C@@H](C)O)C(=O)N[C@@H](CC(C)C)C(=O)N[C@H]1CSC2=C(SC[C@@H](C(=O)N[C@@H](Cc3c[nH]c4ccccc34)C(=O)NCC(N)=O)NC(=O)[C@H](CCC(=O)O)NC(=O)[C@H](CC(N)=O)NC(=O)[C@H](CCC(=O)O)NC1=O)C(=O)NC2=O [N-Myc 61-89L83C/L87C mal] (Ac-LSPSRGFAEHSSEPPSWVTEMLCENECWG-NH2; linker 23-27 via Maleimide(3,4-diyl)) | 129 ± 3 | – | –

Further lines, results first:

Row | IC50 [1] [µM] | MRE222 (mean residue ellipticity at 222 nm) ([2]; 25 mM Tris, mean ± SD, SD) [deg cm^−1 dmol^−1 res^−1] | % Helicity (estimated) ([2]; from MRE222 by equation 7, 25 mM Tris) [%] | Compound
6 | 133 ± 3 | – | – | CC(=O)N[C@@H](CC(C)C)C(=O)N[C@@H](CO)C(=O)N1CCC[C@H]1C(=O)N[C@@H](CO)C(=O)N[C@@H](CCCNC(=N)N)C(=O)NCC(=O)N[C@@H](Cc1ccccc1)C(=O)N[C@@H](C)C(=O)N[C@@H](CCC(=O)O)C(=O)N[C@@H](Cc1c[nH]cn1)C(=O)N[C@@H](CO)C(=O)N[C@@H](CO)C(=O)N[C@@H](CCC(=O)O)C(=O)N1CCC[C@H]1C(=O)N1CCC[C@H]1C(=O)N[C@@H](CO)C(=O)N[C@@H](Cc1c[nH]c2ccccc12)C(=O)N[C@H](C(=O)N[C@H](C(=O)N[C@@H](CCC(=O)O)C(=O)N[C@H]1CSC2=C(SC[C@@H](C(=O)N[C@@H](CCC(=O)O)C(=O)N[C@@H](CC(C)C)C(=O)N[C@@H](Cc3c[nH]c4ccccc34)C(=O)NCC(N)=O)NC(=O)[C@H](CCC(=O)O)NC(=O)[C@H](CC(C)C)NC(=O)[C@H](CC(C)C)NC1=O)C(=O)NC2=O)[C@@H](C)O)C(C)C [N-Myc 61-89 M81C/N85C mal] (Ac-LSPSRGFAEHSSEPPSWVTECLLECELWG-NH2; linker 21-25 via Maleimide(3,4-diyl))
7 | – | -1692 ± 70 | 6 ± 1 | CSCC[C@H](NC(=O)[C@H](CCC(=O)O)NC(=O)[C@@H](NC(=O)[C@H](CS)NC(=O)[C@H](Cc1c[nH]c2ccccc12)NC(=O)[C@H](CO)NC(=O)[C@@H]1CCCN1C(=O)[C@@H]1CCCN1C(=O)[C@H](CCC(=O)O)NC(=O)[C@H](CO)NC(=O)[C@H](CO)NC(=O)[C@H](Cc1c[nH]cn1)NC(=O)[C@H](CCC(=O)O)NC(=O)[C@H](C)NC(=O)[C@H](Cc1ccccc1)NC(=O)CNC(=O)[C@H](CCCNC(=N)N)NC(=O)[C@H](CO)NC(=O)[C@@H]1CCCN1C(=O)[C@H](CO)NC(=O)[C@H](CC(C)C)NC(C)=O)[C@@H](C)O)C(=O)N[C@@H](CS)C(=O)N[C@@H](CC(C)C)C(=O)N[C@@H](CCC(=O)O)C(=O)N[C@@H](CC(N)=O)C(=O)N[C@@H](CCC(=O)O)C(=O)N[C@@H](CC(C)C)C(=O)N[C@@H](Cc1c[nH]c2ccccc12)C(=O)NCC(N)=O [N-Myc 61-89 V78C/L82C red] (Ac-LSPSRGFAEHSSEPPSWCTEMCLENELWG-NH2)
